The results in this text go back to paper PMC12114375, “Discovery of Hydrazineyl Amide Derivative of Pseudolaric Acid B for Reprogramming Tumor-Associated Macrophages Against Tumor Growth” (Molecules, 2025).

The structures appear in SMILES notation.

The subject of this assay is NOS2 mRNA expression in RAW 264.7 cells. The experiment in a line: qRT-PCR of NOS2 mRNA in IL-4/IL-13-stimulated RAW 264.7 cells. Type of assay: cell-based, mouse. Particulars: Mus musculus, RAW264.7, IL-4/IL-13 (20 ng/mL) plus compound 10 μM, 12 h, stimulated control = 100%, mean ± SD, read-out: NOS2 mRNA Relative Expression (%). The source says: We first investigated the impacts of a series of commercially available natural pseudolaric acids or their O-pyranosides (Figure 1) on the pro-tumoral phenotype of TAMs, which play a critical role in anti-tumor immune response modulation. […] In contrast, M1-biased macrophages combat tumor growth and bacterial infections by expressing inducible nitric oxide synthase 2 (NOS2), which catalyzes the production of nitric oxide (NO). Recognizing the pivotal roles of ARG1 and NOS2, we utilized these molecules as key biomarkers and effectors for assessing macrophage immune function. In our experiments, the mouse monocyte–macrophage leukemia cell line RAW 264.7 was induced with IL-4/IL-13 to acquire an M2-like pro-tumoral phenotype. Concurrently, the cells were treated with the pseudolaric acid-related natural products 1–7 at a concentration of 10 μM for 12 h. Additionally, PLX3397 was used as a positive control at a concentration of 0.5 μM. […] As shown in Table 1 and Figure S1A, pseudolaric acid B (1), its deacetoxyl analogue 2 (pseudolaric acid C), and β-D-glucoside 7 substantially attenuated the upregulation of ARG1 mRNA expression induced by IL-4/IL-13, with statistically significant effects. In contrast, bis-carboxylic acids analogs 4 (pseudolaric acid C2) and 6 (demethoxydeacetoxypseudolaric acid B) have no significant impact on ARG1 mRNA expression.
With these carboxylic acid-modified derivatives in hand, we investigated their impact at 10 μM on ARG1 and NOS2 mRNA expression in RAW 264.7 cells pre-stimulated with IL-4/IL-13 to evaluate the effects on the pro-tumor phenotype of macrophages. […] Further removal of one hydroxyl from the glycerol moiety 15 further enhanced the inhibitory effect on ARG1 expression but had no significant impact on NOS2 expression.
Total RNA was isolated from cells using the EZ-press RNA Purification Kit (EZBioscience, Suzhou, China) and subjected to reverse transcription with the 5×HiScript II qRT SuperMix II (Vazyme, Nanjing, China). PCR was performed with the 2×ChamQ Universal SYBR qPCR Master Mix (Vazyme, Nanjing, China). All primers for qRT-PCR are described in Table S1. The 2^−∆∆Ct method was utilized to calculate the fold change in gene expression, with the expression levels in the stimulated group set as the baseline for normalization.

Regarding `COC(=O)C1=CC[C@@]23CC[C@@H]([C@@](C)(/C=C/C=C(\C)C(=O)NNCCO)OC2=O)[C@@]3(OC(C)=O)CC1` [compound 12, Methyl(3R,4S,4aS,9aR)-4a-acetoxy-3-((1E,3E)-5-(2-(2-hydroxyethyl)hydrazineyl)-4-methyl-5-oxopenta-1,3-dien-1-yl)-3-methyl-1-oxo-3,4,4a,5,6,9-hexahydro-1H-4,9a-ethanocyclohepta[c]pyran-7-carboxylate], the activity at 10 µM was 182 ± 5.3%.
